From publication PMC4949440 (Scientific Reports, 2016)
Where two headings read alike, the source gives them in different places.

Assays:
HEK293 cells = test: cells; assay type: cell-based
HL-60 cells [1] = test: cells; assay type: cell-based, human
GES-1 cells = test: cells; assay type: cell-based; details: read-out: IC50 GES-1
MCF-7 cells = test: cells; assay type: cell-based; details: read-out: IC50 MCF-7
SGC7901 cells = test: cells; assay type: cell-based; details: read-out: IC50 SGC7901
NIH3T3 cells = test: cells; assay type: cell-based
HL-60 cells [2] = test: Intracellular ROS level (DCFH-DA); assay type: cell-based, human; details: 2 μM 2a or 1.5 μM 2b, 24 h
Description: HL-60 cells treated with 2 μM 2a or 1.5 μM 2b were plated in 12-well plates. After 24 h, each sample of cells was collected and washed once with PBS. The cells were incubated with 300 μL FBS-free medium containing DCFH-DA (1 μM) for 30 min in dark at 37 °C. Data were obtained and analyzed using a C6 flow cytometer (BD Biosciences, USA)[27].
In laser scanning confocal experiment, the medium was removed after 24 h incubation. 1 mL FBS-free medium with DCFH-DA (10 μM) was added to each sample. Then continue the incubation for 30 min in dark at 37 °C. The samples were visualized and photographed using a C1-si Laser Scanning Confocal Microscope (Nikon, Japan).
(§1) In protective trial, the cells were pre-incubated with the protective agents for 4 h and other operations were in accordance with the above.

HL-60 cells [3] = test: Total glutathione and GSH/GSSG level; assay type: cell-based, human; details: 2 μM 2a or 1.5 μM 2b; for ratio of GSH/GSSG: with or without 0.075 mM LA
Description: The cells were cultured in a 6-well plate and treated with 2 μM 2a or 1.5 μM 2b. After 24 h, the cells were collected and washed twice with PBS. The protein content was quantified by the use of Bradford procedure. Then each sample was treated according to the manufacturer’s instructions (beyotime, Shanghai, China). The absorbance was measured every 5 minutes at 405 nm with microplate reader.
as §1

HL-60 cells [4] = assay type: cell-based, human; details: for apoptosis rate (FITC+/PI− and FITC+/PI+): control 2.9%
HL-60 cells [5] = test: Released cytochrome c level (ELISA); assay type: cell-based, human; details: 3 μM 2a or 2 μM 2b, 24 h
Description: HL-60 cells with 3 μM 2a or 2 μM 2b were incubated in a 12-well plate for 24 h. The cells were sacrificed and dealt with ELISA Kit (Meilian BiotechCo., Ltd, Shanghai, China) according to the manufacturer’s instructions. The absorbance was measured at 450 nm with microplate reader.
as §1

HL-60 cells [6] = test: Mitochondrial membrane potential (JC-1 or Rh123, flow cytometry); assay type: cell-based, human
Description: HL-60 cells treated with 2a (1.5 μM and 3 μM) or 2b (1 μM and 2 μM) were plated in 12-well plates. After 24 h, cells were collected and washed once with PBS. Then, the cells were handled with JC-1 according to the manufacturer’s instructions (Multi Sciences BiotechCo., Ltd, Hangzhou, China) or Rh123. Data were obtained and analyzed using a C6 flow cytometer (BD Biosciences, USA).
as §1

Caspase-3 in HL-60 cells = test: Caspase-3 activity (colorimetric, cell extracts); assay type: cell-based, human
Description: HL-60 cells were treated with 3 μM 2a or 2 μM 2b for 12 h in a 6-well plate. Each sample was collected and washed twice with PBS. Then the cells were incubated with moderate lysis buffer from the kit on ice. The cell extract was handled on the basis of manufacturer’s instructions (beyotime, Shanghai, China). After 3 h, the absorbance at 405 nm was measured using a microplate reader.
as §1

HL-60 cells [7] = test: Hoechst 33342 staining, morphology; assay type: cell-based, human; details: 2a (1 μM and 2 μM) or 2b (0.75 μM and 1.5 μM), 24 h
Description: HL-60 cells treated with 2a (1 μM and 2 μM) or 2b (0.75 μM and 1.5 μM) were plated in 12-well plates, and the medium was removed after 24 h, followed by the addition of 5 μg.mL^−1 Hoechst 33342. After being incubated for 30 min in dark at 37 °C, the samples were visualized and photographed using a C1-si Laser Scanning Confocal Microscope (Nikon, Japan)[27].

normal leukocyte = test: Effect on normal leukocyte (MTT viability and Annexin V-FITC/PI apoptosis); assay type: cell-based, human; details: 3.5 μM 2a, 2.5 μM 2b or 15 μM As2O3 for 6 h, 12 h or 24 h
Description: Normal human fresh peripheral blood with EDTA anticoagulant was dealt with Red Blood Cell Lysis Buffer according to manufacturer’s instructions (Beyotime, Shanghai, China) to obtain the normal leukocyte. […] Then, the apoptosis rate using Annexin V-FITC/PI staining and cell viability using MTT method were tested respectively. There are 8 independent normal human fresh peripheral blood samples in all to be tested. This study was carried out in accordance with relevant guidelines and regulations of Wuhan University and the experiment protocol was approved by Zhongnan Hospital of Wuhan University. Additionally, the informed consent was obtained from all subjects.

[8] = 3 μM 2a or 2 μM 2b alone, 24 h (Fig. 2a, Fig. 6c)
[9] = 3 μM 2a or 2 μM 2b alone, 24 h, LA experiment (Fig. 6d)
[10] = 3 μM 2a or 2 μM 2b with 0.075 mM LA pre-incubating, 24 h
[11] = 3 μM 2a or 2 μM 2b with 2 mM NAC, 24 h
[12] = 3 μM 2a or 2 μM 2b, 24 h (Fig. 2a)
[13] = Homo sapiens, HEK293, read-out: IC50 HEK293
[14] = Homo sapiens, HL-60, 24 h, read-out: IC50 HL-60
[15] = 3 μM 2a or 2 μM 2b after pre-adding 0.075 mM LA
[16] = 3 μM 2a or 2 μM 2b, 24 h (Fig. 5b), control 30.8%
[17] = 3 μM 2a or 2 μM 2b alone, 24 h, 12 h (method)
[18] = 3 μM 2a or 2 μM 2b with 0.075 mM LA
[19] = Mus musculus, NIH3T3, read-out: IC50 NIH3T3

| SMILES | relative fluorescence intensity of DCF (ROS) versus control (HL-60 cells [2]) | ROS level with antioxidant (HL-60 cells [2]; 0.075 mM LA pre-incubated 4 h) | ROS level with antioxidant (HL-60 cells [2]; 1 mM DTT pre-incubated 4 h) | ROS level with antioxidant (HL-60 cells [2]; 1 mM VC pre-incubated 4 h) | ROS level with antioxidant (HL-60 cells [2]; 2 mM NAC pre-incubated 4 h) | ROS level with antioxidant (HL-60 cells [2]; pretreated with GSH) | content of intracellular total GSH (HL-60 cells [3]; 24 h) | content of intracellular total GSH (HL-60 cells [3]; pretreatment with 0.075 mM LA) | ratio of GSH/GSSG (HL-60 cells [3]) | apoptosis rate (FITC+/PI− and FITC+/PI+) (HL-60 cells [4]; 1.5 μM 2a or 1 μM 2b, 24 h) [%] | Q1-LL live (normal) cells (HL-60 cells [4]; [8]) [%] | apoptosis rate (HL-60 cells [4]; [9]) [%] | apoptosis rate (HL-60 cells [4]; [10]) [%] | Q1-LL live (normal) cells (HL-60 cells [4]; [11]) [%] | apoptosis rate (FITC+/PI− and FITC+/PI+) (HL-60 cells [4]; [12]) [%] | IC50 (HEK293 cells; [13]) [µM] | IC50 (HL-60 cells [1]; [14]) [µM] | IC50 (GES-1 cells; Homo sapiens, GES1, 24 h) [µM] | IC50 (MCF-7 cells; Homo sapiens, MCF7, 24 h) [µM] | IC50 (SGC7901 cells; Homo sapiens, SGC-7901, 24 h) [µM] | also measured |
| --- | --- | --- | --- | --- | --- | --- | --- | --- | --- | --- | --- | --- | --- | --- | --- | --- | --- | --- | --- | --- | --- |
| O=[As]O [NaAsO2, reference compound] | – | – | – | – | – | – | – | – | – | – | – | – | – | – | – | – | – | – | – | – | IC50 (HEK293 cells; read-out: IC50 HEK293): 14.6 ± 0.61 µM; IC50 (HL-60 cells [1]; read-out: IC50 HL-60): 10.6 ± 3.06 µM; IC50 (GES-1 cells): 42.6 ± 11.6 µM; IC50 (MCF-7 cells): 31.7 ± 0.67 µM; IC50 (SGC7901 cells): 59 ± 11.8 µM; IC50 (NIH3T3 cells; read-out: IC50 NIH3T3): 10.8 ± 1.66 µM |
| COc1cc(C=Nc2ccc([As]=O)cc2)ccc1O (centres unmarked) [Compound 2b, 2-methoxy-4-(((4-(oxoarsanyl)phenyl)imino)methyl)phenol] | doubled approximately | scavenging ROS completely | eliminate the majority of ROS | eliminate the majority of ROS | removed completely | began to decrease by a concentration-dependent way | decreased significantly | could recover the content | showed the similar variation trend | 10.7 | 34.4 | 86.1 | 11.7 | 92.1 | 65.3 | 2.29 ± 0.34 | 0.51 ± 0.1 | 1.57 ± 0.26 | 2.81 ± 1.34 | 2.12 ± 0.48 | concentration that could kill the majority of HL-60 cells (HL-60 cells [1]): less than 1 μM; relative content of cytochrome c versus control (HL-60 cells [5]): five times; intensity of Rh123 (mitochondrial membrane potential) (HL-60 cells [6]; 3 μM 2a or 2 μM 2b): drop obviously; intensity of Rh123 (mitochondrial membrane potential) (HL-60 cells [6]; [15]): recovered to some extent; proportion of mitochondrial membrane potential collapse (P2, JC-1) (HL-60 cells [6]; 3 μM 2a or 2 μM 2b with 0.075 mM LA pre-incubation (Fig. 5b)): ~12%; proportion of mitochondrial membrane potential collapse (P2, JC-1) (HL-60 cells [6]; [16]): 78.5%; activity of Caspase-3 (Caspase-3 in HL-60 cells; [17]): enhanced; activity of Caspase-3 (Caspase-3 in HL-60 cells; [18]): could be deterred by 0.075 mM LA; IC50 (NIH3T3 cells; [19]): 2.72 ± 0.64 µM; morphology changes (Hoechst 33342 fluorescence) (HL-60 cells [7]): cell nuclear shrinkage and DNA incision; influence on normal leukocyte (cell viability, apoptosis) versus control (normal leukocyte): no more influence on normal leukocyte than control |
| O=[As]c1ccc(N=Cc2ccccc2O)cc1 (centres unmarked) [Compound 2a, 2-(((4-(oxoarsanyl)phenyl)imino)methyl)phenol] | doubled approximately | scavenging ROS completely | scavenge additional ROS completely | decrease the level of ROS to that of control | scavenge additional ROS completely | began to decrease by a concentration-dependent way | decreased significantly | could recover the content | showed the similar variation trend | 9.3 | 44.3 | 55.7 | 11.4 | 86.6 | 55.5 | 4.36 ± 0.62 | 0.77 ± 0.1 | 5.96 ± 1.23 | 2.53 ± 0.41 | 4.03 ± 0.89 | concentration that could kill the majority of HL-60 cells (HL-60 cells [1]): less than 1 μM; relative content of cytochrome c versus control (HL-60 cells [5]): approximately six times; intensity of Rh123 (mitochondrial membrane potential) (HL-60 cells [6]; 3 μM 2a or 2 μM 2b): drop obviously; intensity of Rh123 (mitochondrial membrane potential) (HL-60 cells [6]; [15]): recovered to some extent; proportion of mitochondrial membrane potential collapse (P2, JC-1) (HL-60 cells [6]; [16]): 68.3%; activity of Caspase-3 (Caspase-3 in HL-60 cells; [17]): enhanced; activity of Caspase-3 (Caspase-3 in HL-60 cells; [18]): could be deterred by 0.075 mM LA; IC50 (NIH3T3 cells; [19]): 7.43 ± 0.37 µM; morphology changes (Hoechst 33342 fluorescence) (HL-60 cells [7]): cell nuclear shrinkage and DNA incision; influence on normal leukocyte (cell viability, apoptosis) versus control (normal leukocyte): no more influence on normal leukocyte than control |
| Oc1ccccc1C=Nc1ccccc1 [Compound 1a, 2-((phenylimino)methyl) phenol, reference compound] | – | – | – | – | – | – | – | – | – | – | – | – | – | – | – | – | > 100 | > 100 | > 100 | > 100 | – |
| O=[As]c1ccc(N=Cc2c3ccccc3cc3ccccc23)cc1 (centres unmarked) [Compound 4a, 1-(anthracen-9-yl)-N-(4-(oxoarsanyl)phenyl) methanimine] | – | – | – | – | – | – | – | – | – | – | – | – | – | – | – | – | 15.9 ± 0.56 | 8.72 ± 3.76 | 11.3 ± 3.4 | 7.63 ± 3.02 | IC50 (HL-60 cells [1]; Homo sapiens, HL-60, read-out: half inhibitory concentration (IC50) for HL-60 cells): > 10 µM; melting point: 91 to 92 °C |
